Measured values as given in patent publication EP0982318A2, “Enchanced phosphorylation of P53 by ATM in response to DNA damage” (RAMOT UNIVERSITY AUTHORITY FOR APPLIED RESEARCH & …, priority 1998, dated 2000).
Where two headings read alike, the source gives them in different places.

Tests used:
ATM [1] = molecular target: T1, ATM (Homo sapiens, UniProt Q13315); test: ATM immune complex protein kinase assay (inhibition by wortmannin); assay type: biochemical
T1 construct: endogenous in cells; host or cells: cultured cells, lysed and immunoprecipitated with anti-ATM monoclonal antibody
Experimental: (§1) For these experiments, 5X10^6 cells were washed in ice-cold phosphate buffered saline and lysed in 700 µl of 10 mM Tris-HCl (pH 7.5), 150 mM NaCl, 0.2% dodecyl maltoside (Sigma), 5 mM EDTA, 50 mM NaF, 2 mM phenylmethylsulfonylfluoride, 100 µM NaVO4, 2 µg/ml aprotonin (lysis buffer). Freshly prepared cell lysates were incubated for 2 hours at 4°C on a rotator with 10 µl of hybridoma supernatants. Fifty µl of magnetic beads coated with anti-mouse IgG (Dynabeads M-450, DYNAL, Oslo, Norway) were added and the mixture was further rotated at 4°C for 2 hours. Immune complexes were collected using a magnetic stand (DYNAL) and washed 3 times with lysis buffer. For Western blotting analysis, 1/3 of this mixture was loaded on a polyacrylamide-SDS gel which was later blotted onto a nitrocellulose membrane (Nitrocell MFF, Pharmacia Biotech, San Francisco, CA) as previously described [ref 8]. Immune complexes were washed twice with kinase buffer (50 mM Hepes, pH 7.5, 150 mM NaCl, 4 mM MnCl2, 6 mM MgCl2, 10% v/v glycerol, 1 mM DTT, 100 µM NaVO4). Two hundred ng - 1 µg substrate, 10 µCi [32P]ATP and ATP to final concentration of 5 µM were added, and the reaction mixtures were incubated at 30°C for 3-15 minutes. […]
ATM immune complexes were incubated with various concentrations of the drug and washed with the reaction buffer before kinase activity was measured. […]

ATM [2] = test: Kinase activity of ATM immunoprecipitated from cells treated with NCS; assay type: cell-based, human
Experimental: as §1, with “NaVO4).” for “NaVO4). Two hundred ng - 1 µg substrate, 10 µCi [32P]ATP and ATP to final concentration of 5 µM were added, and the reaction mixtures were incubated at 30°C for 3-15 minutes.”
Kinase activity was assayed using the p53-N47 substrate. The histogram presents quantitation of the data from the top panel (B). […]
U: untreated cells. The curve presents quantitation of the data from the top panel.

T1 sequence (Q13315 whole entry): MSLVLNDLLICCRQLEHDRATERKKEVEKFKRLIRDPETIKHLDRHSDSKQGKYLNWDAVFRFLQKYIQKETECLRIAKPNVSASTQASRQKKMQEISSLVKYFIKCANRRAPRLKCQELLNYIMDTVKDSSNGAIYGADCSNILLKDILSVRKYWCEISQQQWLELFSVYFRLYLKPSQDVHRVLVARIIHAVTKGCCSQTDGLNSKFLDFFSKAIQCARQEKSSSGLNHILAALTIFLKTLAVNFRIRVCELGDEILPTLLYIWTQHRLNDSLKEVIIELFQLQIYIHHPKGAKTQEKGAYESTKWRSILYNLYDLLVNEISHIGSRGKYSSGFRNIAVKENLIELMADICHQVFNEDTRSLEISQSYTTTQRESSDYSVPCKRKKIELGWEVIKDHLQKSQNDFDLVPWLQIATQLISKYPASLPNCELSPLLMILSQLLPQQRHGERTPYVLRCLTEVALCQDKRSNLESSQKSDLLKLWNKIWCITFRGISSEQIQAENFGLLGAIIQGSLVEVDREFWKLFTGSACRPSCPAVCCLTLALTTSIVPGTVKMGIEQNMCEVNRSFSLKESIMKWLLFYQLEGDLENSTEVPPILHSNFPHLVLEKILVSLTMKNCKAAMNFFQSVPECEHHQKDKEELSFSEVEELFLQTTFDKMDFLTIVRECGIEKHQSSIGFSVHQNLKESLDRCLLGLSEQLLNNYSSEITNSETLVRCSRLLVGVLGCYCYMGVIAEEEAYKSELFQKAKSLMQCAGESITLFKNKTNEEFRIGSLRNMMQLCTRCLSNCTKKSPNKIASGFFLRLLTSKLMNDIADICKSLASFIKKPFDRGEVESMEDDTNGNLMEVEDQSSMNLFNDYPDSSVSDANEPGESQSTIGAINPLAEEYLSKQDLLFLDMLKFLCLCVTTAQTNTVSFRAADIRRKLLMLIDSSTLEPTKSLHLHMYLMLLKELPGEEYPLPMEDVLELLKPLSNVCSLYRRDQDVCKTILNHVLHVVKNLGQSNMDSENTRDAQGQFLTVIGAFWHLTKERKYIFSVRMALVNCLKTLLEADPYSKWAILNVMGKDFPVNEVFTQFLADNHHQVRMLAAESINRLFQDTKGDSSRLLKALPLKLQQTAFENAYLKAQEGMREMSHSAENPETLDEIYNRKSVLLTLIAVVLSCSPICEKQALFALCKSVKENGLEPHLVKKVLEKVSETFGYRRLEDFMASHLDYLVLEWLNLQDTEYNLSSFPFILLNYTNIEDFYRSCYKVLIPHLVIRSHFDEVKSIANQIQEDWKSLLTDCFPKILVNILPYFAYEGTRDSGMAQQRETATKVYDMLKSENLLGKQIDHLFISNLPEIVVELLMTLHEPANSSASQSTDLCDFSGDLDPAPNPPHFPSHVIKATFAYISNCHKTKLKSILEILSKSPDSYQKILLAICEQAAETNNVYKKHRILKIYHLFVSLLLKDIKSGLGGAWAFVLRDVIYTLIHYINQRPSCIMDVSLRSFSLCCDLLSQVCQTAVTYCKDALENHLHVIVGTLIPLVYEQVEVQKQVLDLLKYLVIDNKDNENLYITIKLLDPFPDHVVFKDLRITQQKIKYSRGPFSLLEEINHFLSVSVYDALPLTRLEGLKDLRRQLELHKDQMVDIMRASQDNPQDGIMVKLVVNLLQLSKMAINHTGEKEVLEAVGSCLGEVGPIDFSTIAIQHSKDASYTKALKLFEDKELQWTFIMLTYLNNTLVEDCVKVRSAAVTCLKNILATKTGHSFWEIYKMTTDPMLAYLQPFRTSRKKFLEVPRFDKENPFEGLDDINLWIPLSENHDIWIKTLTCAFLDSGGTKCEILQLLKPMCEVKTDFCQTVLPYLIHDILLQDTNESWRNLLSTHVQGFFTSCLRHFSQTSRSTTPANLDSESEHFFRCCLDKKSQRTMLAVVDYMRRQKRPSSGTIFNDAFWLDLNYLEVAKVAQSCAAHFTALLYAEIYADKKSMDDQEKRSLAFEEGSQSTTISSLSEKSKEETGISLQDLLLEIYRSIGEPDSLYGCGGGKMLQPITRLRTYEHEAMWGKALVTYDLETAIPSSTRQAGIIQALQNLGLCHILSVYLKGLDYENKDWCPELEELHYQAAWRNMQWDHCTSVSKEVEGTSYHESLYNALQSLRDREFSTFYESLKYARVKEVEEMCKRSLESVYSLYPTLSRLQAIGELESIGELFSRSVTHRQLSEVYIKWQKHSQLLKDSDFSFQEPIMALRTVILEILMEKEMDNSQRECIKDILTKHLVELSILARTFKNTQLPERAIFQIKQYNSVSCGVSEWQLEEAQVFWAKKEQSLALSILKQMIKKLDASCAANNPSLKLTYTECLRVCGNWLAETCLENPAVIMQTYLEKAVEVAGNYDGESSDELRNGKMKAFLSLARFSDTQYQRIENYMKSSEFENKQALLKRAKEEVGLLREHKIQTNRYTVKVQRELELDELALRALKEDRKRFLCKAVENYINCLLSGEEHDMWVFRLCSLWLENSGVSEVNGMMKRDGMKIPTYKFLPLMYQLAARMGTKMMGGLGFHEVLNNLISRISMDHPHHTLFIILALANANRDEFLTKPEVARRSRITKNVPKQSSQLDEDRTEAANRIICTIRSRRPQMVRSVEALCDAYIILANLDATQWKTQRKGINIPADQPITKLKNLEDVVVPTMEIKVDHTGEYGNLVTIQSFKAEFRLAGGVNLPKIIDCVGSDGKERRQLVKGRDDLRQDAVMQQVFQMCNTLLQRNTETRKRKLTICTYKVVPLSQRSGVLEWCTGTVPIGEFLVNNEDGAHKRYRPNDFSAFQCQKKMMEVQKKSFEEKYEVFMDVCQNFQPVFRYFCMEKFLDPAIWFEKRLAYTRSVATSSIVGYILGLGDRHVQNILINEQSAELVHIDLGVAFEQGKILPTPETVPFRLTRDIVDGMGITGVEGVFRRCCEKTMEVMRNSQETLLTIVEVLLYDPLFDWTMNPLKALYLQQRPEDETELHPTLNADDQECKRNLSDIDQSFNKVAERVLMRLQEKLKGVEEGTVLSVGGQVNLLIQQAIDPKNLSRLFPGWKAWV

Compound	IC50 (ATM [1])	IC50 (ATM [1]; ATM immune complexes exposed to wortmannin for 30 minutes and washed before kinase assay, PHAS-I as substrate, activity normalized to amount of ATM protein, read-out: IC50 (sensitivity of ATM-associated kinase activity to wortmannin))	maximal enhancement of ATM's activity compared to its basal activity (ATM [2]; nine experiments, ATM immunoprecipitated from cells after NCS treatment, p53-N47 substrate)	time of second enhancement of ATM's activity following treatment (ATM [2]; time course after NCS (50 ng/ml), Figure 3B)
COC[C@H]1OC(=O)c2coc3c2[C@@]1(C)C1=C(C3=O)[C@@H]2CCC(=O)[C@@]2(C)C[C@H]1OC(C)=O [wortmannin]	0.08 µM	0.1 µM		
neocarzinostatin [NCS]			4.4±0.8 fold	about 120 minutes
